# Key:
# mdx mice [1] = assay: Grip strength test (maximal normalized strength, FNmax) in mdx mice; format: in vivo, mouse (C57BL/10ScSn-Dmd^mdx/J)
# Text: For the efficacy studies, C57BL/10 J (Stock No: 000665) wild type (wt) and C57BL/10ScSn-Dmd^mdx/J (Stock No: 001801) 7–8-week-old male mice, DBA/2J wt (Stock No: 000671), and D2.B10-Dmd^mdx/J (Stock No: 013141) 6–7-week-old male mice were purchased from The Jackson Laboratories (Bar Harbor, Maine, USA). After 5 days of acclimatization in the animal facility, mice were randomized into different treatment groups based on their BW. C57BL/10J wt mice were assigned to the naive wt group (healthy mice that received no treatment, but were subjected to functional tests), whereas mdx mice were assigned to the following groups (9 mice/group; 4–5 mice/cage): naive mdx (mice that received no treatment, but were subjected to functional tests), vehicle (0.5% methylcellulose, p.o.), and Givinostat (0.1, 0.3, 1, 5, 10, 25, and 37.5 mg/kg, p.o.). DBA/2J mice were assigned to the naive wt group (healthy mice that received no treatment, but were subjected to functional tests), whereas D2.B10 mice were assigned to the following groups (12–13 mice/group; 4–5 mice/gage): vehicle (filtered tap water, p.o.), Givinostat (1, 5, 10, and 37.5 mg/kg, p.o.), prednisone 1 mg/kg, and Deflazacort 1 mg/kg (i.p.).
# In the efficacy studies, Givinostat powder (ITF2357) was suspended in 0.5% methylcellulose (Sigma-Aldrich) and administered p.o. (by gavage) at the doses of 0.1, 0.3, 1, 5, 10, 25, and 37.5 mg/kg qdx5x15weeks (administration volume per mouse: 10 mL/kg) in mdx mice (see Additional Figure 1A). Vehicle-treated mdx mice received 0.5% methylcellulose suspension. Givinostat suspension was stored at + 4 °C, and it was freshly prepared every 7 days. […] Water consumption was weekly monitored throughout the entire duration of the study weighing the bottle of each cage (maximum 4 mice per cage). […] All mice were monitored daily and tolerability was evaluated on the basis of BW and clinical signs.
# In both efficacy studies, the effectiveness of treatments was evaluated every week by measuring the forelimb strength by a grip strength meter (Ugo Basile SRL, Italy). BW of mdx (see Additional Figure 2) and D2.B10 mice (see Additional Figure 3) was also measured in order to normalize the absolute grip strength of each mouse with respect to its BW. […] The highest recorded value of maximal normalized strength (FNmax) obtained for each mouse at all the time points (from T0 to T15) was used for further analysis.
# After taking baseline readings for behavioral assays (FNmax and distance run by the animals), mice were re-randomized based on these two parameters, also considering the previous randomization performed on their BW. […]
# mdx mice [2] = assay: Myofiber cross-sectional area (CSA) in mdx mice; format: in vivo, mouse (C57BL/10ScSn-Dmd^mdx/J)
# Text: Tibialis anterior (TA), gastrocnemius (GAS), DIA, and heart were collected from mice maintained under isoflurane anesthesia and sacrificed by cervical dislocation. These muscles were collected from C57BL/10J wt and mdx (5 mice/group) at the end of treatments and from DBA/2J wt and D2.B10 mice (5 mice/group) at two different time points to be examined by a pathologist (for more details see Additional Table 1). Due to the results obtained by the functional tests, muscles from only some treatment groups were analyzed in both DMD models (see Additional Table 1). All the collected muscles were fixed in 10% buffered formalin solution (Bio-optica, Milan, Italy) at + 4 °C for at least 48 h. After fixation, muscular samples were transversely trimmed, caged, and paraffin embedded overnight with an Automated Vacuum Tissue Processor Floor (ETP, Histo-Line Laboratories) and included in paraffin blocks. Serial transverse cross-sections (4 μm thick) were cut with a microtome (Leica RM 2255), collected onto uncoated glass slides, and stained using a standard protocol for hematoxylin and eosin (Mayer hematoxylin & Aqueous G Eosin 1%, Bio-Optica) and Sirius Red staining (Direct Red 80, Sigma-Aldrich). For the image analysis and quantitation, hematoxylin and eosin- and Sirius Red-stained slides were examined with an Olympus BX51 light microscope. From each sample, 1 to 3 random microphotographs at the magnification of × 4 and × 10 (TA, GAS and heart) or × 20 (DIA) were collected using Image-Pro Plus system. The digital images were processed by a pathologist using ImageJ software (U.S. National Institutes of Health, Bethesda, MD, USA). To quantify CSA and centralized nuclei (%) on hematoxylin and eosin-stained sections, one hundred myofibers were manually measured for each muscle/mouse using a tablet pen (Wacom Intruos) and analyzed by the ImageJ software after a linear calibration of 150 μm. The fibrotic area, corresponding to the area stained in red, was compared to the total area of the tissue section, and the results were expressed as percentage fibrosis. The % of fibrosis of muscles in the different treatment groups was expressed by averaging the three values obtained from each muscle.
# The deciles of the CSA of the animals treated with Givinostat at the different doses were plotted against the corresponding deciles of the vehicle-treated mice and a linear regression analysis was performed on natural [CSAtreated = b CSAcontrol + a] and log_transformed data [log(CSAtreated) = log(a) + b log(CSAcontrol)]. […] In case of untransformed data, this means that the effect of Givinostat treatment is additive and any decile of the CSAtreatment distribution may be derived from the control data summing up a constant quantity (S) to each fiber AREA of the control group (CSAtreated = CSAcontrol + S). In case of log_transformed data, the effect of Givinostat has to be considered as a multiplicative factor on any generic fiber of the muscle under evaluation, whose size, after the treatment, results K times larger in comparison to the control group value (CSAtreated […] = K × CSAcontrol, with K = 10^a). The S or K parameter values were then determined through an iterative estimation procedure, based on sum of squares (SSQ) minimization, directly comparing the CSA distribution observed in treated animals with that obtained summing up the S value or multiplying by K the CSA values of the control group.
smiles,measurement,setting,value
CCN(CC)Cc1ccc2cc(COC(=O)Nc3ccc(C(=O)NO)cc3)ccc2c1 [Givinostat],FNmax level on treatment day 49,"mdx mice [1]; 37.5 mg/kg p.o., transient",comparable to that of wt healthy mice
same,Effect on maximal normalized strength (FNmax),mdx mice [1]; 0.1-37.5 mg/kg p.o. qdx5x15weeks,"remarkable, dose-dependent increase of the FNmax"
same,Dose of maximal efficacy on FNmax,mdx mice [1]; p.o. qdx5x15weeks,37.5 mg/kg
same,Persistence of beneficial effect on FNmax,mdx mice [1]; vs vehicle,remained significant up to day 105
same,"DIA fiber CSA, peak value",mdx mice [2]; 37.5 mg/kg (same as vehicle),550 μm^2
same,"GAS fiber CSA, peak of distribution","mdx mice [2]; 37.5 mg/kg, after 105 days (vehicle peak 500)",1100 μm^2
same,"K, multiplicative factor on GAS fiber CSA vs vehicle","mdx mice [2]; 37.5 mg/kg, multiplicative model",1.72
same,"TA fiber CSA, peak value",mdx mice [2]; 10 and 37.5 mg/kg (vehicle 700),900 μm^2
same,"S, shift effect parameter on TA CSA vs vehicle",mdx mice [2]; additive model,140 μm^2

# From article PMC8296708, “The pan HDAC inhibitor Givinostat improves muscle function and histological parameters in two Duchenne muscular dystrophy murine models expressing different haplotypes of the LTBP4 gene” (Skeletal Muscle, 2021)
